Literature values as cited in paper PMC11672637, “7-O-Carboxylic Acid-Substituted 3-O-Alkyl Difluoroquercetin; An Aztreonam-Potentiating Agent Against Carbapenemase-Producing Pseudomonas aeruginosa Through Simultaneous Inhibition of Metallo-β-Lactamase and Efflux Pump” (Antibiotics, 2024).

How the values were obtained:
Design in all cases: method as in earlier work
Conditions in all cases: Table S1; cited from earlier work
[1] = system: Ambler Class A β-lactamases
[2] = system: Ambler Class C β-lactamases
[3] = system: Ambler Class D β-lactamases

NC(=O)[C@@H]1CC[C@@H]2CN1C(=O)N2OS(=O)(=O)O [AVI, avibactam]
inhibits: BLi activity (Ambler Class A) [1] | BLi activity (Ambler Class C) [2] | BLi activity (Ambler Class D) [3]
